Experiments:
[1] = molecular target: T1, Solute carrier organic anion transporter family member 1B2 (Rattus norvegicus, UniProt Q9QZX8); assay: (§1) TP_TRANSPORTER: uptake in Xenopus laevis oocytes; type: functional, cell-based; details: oocyte
T1 sequence (Q9QZX8 whole entry): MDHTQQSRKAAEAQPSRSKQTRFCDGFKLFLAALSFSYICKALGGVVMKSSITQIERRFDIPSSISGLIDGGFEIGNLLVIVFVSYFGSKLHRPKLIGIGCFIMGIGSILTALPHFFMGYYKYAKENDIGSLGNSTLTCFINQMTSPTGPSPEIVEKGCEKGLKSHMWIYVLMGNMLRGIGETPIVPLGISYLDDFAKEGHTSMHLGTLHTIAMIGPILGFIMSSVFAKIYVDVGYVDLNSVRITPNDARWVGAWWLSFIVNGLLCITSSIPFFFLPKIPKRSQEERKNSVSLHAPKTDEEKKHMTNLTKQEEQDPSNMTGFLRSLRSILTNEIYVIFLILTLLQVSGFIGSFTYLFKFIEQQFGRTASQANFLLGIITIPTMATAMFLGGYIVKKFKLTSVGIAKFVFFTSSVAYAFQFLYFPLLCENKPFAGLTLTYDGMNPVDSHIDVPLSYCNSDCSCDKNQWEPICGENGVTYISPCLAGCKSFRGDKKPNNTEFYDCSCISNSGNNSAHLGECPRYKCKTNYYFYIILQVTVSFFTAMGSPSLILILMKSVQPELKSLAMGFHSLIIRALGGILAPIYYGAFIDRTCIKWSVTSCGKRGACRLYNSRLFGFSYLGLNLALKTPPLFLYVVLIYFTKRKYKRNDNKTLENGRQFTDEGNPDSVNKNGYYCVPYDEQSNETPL

[2] = molecular target: T2, Solute carrier organic anion transporter family member 1A5 (Rattus norvegicus, UniProt O88397); assay: as §1; type: functional, cell-based, Oocyte; details: oocyte
T2 sequence (O88397 whole entry): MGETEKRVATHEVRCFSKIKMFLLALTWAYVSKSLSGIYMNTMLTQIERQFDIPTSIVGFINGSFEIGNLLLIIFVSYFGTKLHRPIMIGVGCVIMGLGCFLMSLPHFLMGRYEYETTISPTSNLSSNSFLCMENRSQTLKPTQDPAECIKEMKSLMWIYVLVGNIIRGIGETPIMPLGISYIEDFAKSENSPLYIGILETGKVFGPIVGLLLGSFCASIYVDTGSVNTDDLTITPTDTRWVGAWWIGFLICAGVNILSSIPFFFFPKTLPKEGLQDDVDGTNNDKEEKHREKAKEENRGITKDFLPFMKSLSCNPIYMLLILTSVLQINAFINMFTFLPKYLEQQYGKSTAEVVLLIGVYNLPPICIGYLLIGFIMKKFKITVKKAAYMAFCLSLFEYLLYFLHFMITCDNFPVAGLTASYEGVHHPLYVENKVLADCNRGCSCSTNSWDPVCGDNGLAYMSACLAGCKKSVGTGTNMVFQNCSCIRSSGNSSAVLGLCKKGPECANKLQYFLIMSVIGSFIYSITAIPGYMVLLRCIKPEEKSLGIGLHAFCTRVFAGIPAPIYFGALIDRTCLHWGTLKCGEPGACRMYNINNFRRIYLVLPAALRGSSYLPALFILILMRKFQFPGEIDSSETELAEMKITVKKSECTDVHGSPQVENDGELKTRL

[3] = molecular target: T3, Solute carrier organic anion transporter family member 1A1 (Rattus norvegicus, UniProt P46720); assay: as §1; type: functional, cell-based; details: oocyte
T3 sequence (P46720 whole entry): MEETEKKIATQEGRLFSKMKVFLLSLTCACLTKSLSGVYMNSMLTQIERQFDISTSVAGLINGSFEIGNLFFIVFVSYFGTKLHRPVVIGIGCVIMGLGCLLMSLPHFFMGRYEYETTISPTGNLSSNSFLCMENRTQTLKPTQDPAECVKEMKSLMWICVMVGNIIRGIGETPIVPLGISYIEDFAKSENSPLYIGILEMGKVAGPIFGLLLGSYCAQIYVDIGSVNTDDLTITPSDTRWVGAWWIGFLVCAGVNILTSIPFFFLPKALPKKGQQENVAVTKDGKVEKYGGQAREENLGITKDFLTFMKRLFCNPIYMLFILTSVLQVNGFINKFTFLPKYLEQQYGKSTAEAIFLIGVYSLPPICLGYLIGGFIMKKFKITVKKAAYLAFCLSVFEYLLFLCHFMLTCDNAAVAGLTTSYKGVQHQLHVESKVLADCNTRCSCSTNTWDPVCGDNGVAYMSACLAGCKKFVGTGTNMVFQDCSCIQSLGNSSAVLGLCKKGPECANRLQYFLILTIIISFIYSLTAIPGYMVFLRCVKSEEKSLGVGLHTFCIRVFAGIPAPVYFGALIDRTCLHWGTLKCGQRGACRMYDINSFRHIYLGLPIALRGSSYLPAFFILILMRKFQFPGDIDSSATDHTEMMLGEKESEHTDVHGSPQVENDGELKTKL

[4] = molecular target: T4, Solute carrier organic anion transporter family member 1A4 (Rattus norvegicus, UniProt O35913); assay: as §1; type: functional, cell-based; details: oocyte
T4 sequence (O35913 whole entry): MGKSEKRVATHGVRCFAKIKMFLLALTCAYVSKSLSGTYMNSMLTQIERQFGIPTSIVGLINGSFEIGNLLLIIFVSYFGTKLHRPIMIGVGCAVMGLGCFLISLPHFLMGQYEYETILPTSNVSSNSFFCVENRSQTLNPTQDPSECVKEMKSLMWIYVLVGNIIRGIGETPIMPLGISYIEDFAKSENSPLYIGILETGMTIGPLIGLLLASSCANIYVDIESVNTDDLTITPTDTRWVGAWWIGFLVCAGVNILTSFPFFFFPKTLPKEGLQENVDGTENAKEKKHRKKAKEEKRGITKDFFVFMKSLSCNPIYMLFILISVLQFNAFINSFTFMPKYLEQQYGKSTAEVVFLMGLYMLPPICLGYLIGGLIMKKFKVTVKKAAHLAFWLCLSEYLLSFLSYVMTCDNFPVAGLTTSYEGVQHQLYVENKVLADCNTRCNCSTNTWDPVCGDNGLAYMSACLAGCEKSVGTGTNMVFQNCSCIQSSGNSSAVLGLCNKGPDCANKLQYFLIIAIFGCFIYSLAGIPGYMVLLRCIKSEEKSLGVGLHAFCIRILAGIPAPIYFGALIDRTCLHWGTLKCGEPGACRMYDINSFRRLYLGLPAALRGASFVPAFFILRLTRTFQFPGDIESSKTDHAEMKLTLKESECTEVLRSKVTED

[5] = molecular target: T5, Solute carrier organic anion transporter family member 1A5 (Oatp1a5) (Rattus norvegicus, UniProt O88397); assay: as §1; type: functional, cell-based, Oocyte; details: Xenopus laevis oocytes
T5 sequence (O88397 whole entry): T2 sequence (O88397 whole entry)

[6] = substrate: CCCCC/C=C\C\C=C/C=C/C=C/[C@@H](SC[C@@H](NC(=O)CC[C@H](N)C(=O)O)C(=O)NCC(=O)O)[C@@H](O)CCCC(=O)O; assay: as §1; type: functional, cell-based, Oocyte
[7] = substrate: CC1(C)SSC(C)(C)[C@@H](NC(=O)[C@@H](N)Cc2ccc(O)cc2)C(=O)NCC(=O)N[C@@H](Cc2ccccc2)C(=O)N[C@H]1C(=O)O; assay: as §1; type: functional, cell-based, Oocyte
[8] = substrate: [H][C@@]12CC=C3C[C@@H](OS(=O)(=O)O)CC[C@]3(C)[C@@]1([H])CC[C@]1(C)C(=O)CC[C@@]21[H]; assay: as §1; type: functional, cell-based, Oocyte
[9] = substrate: CC(C)C[C@@H]1NC(=O)[C@@H](C(C)C)NC(=O)[C@@H]2CCCN2C(=O)[C@@H](CC(=O)O)NC(=O)[C@@H](Cc2c[nH]c3ccccc23)NC1=O; assay: as §1; type: functional, cell-based, Oocyte
[10] = substrate: C[C@]12CC[C@@H]3c4ccc(O)cc4CC[C@H]3[C@@H]1CC[C@@H]2O[C@@H]1O[C@H](C(=O)O)[C@@H](O)[C@H](O)[C@H]1O; assay: as §1; type: functional, cell-based, Oocyte
[11] = substrate: CCCCC[C@H](O)/C=C/[C@H]1[C@H](O)CC(=O)[C@@H]1C/C=C\CCCC(=O)O; assay: as §1; type: functional, cell-based, Oocyte
[12] = substrate: C[C@]12CC[C@@H]3c4ccc(OS(=O)(=O)O)cc4CC[C@H]3[C@@H]1CCC2=O; assay: as §1; type: functional, cell-based, Oocyte
[13] = substrate: O=C1OC(c2ccc(O)c(S(=O)(=O)O)c2)(c2ccc(O)c(S(=O)(=O)O)c2)c2c(Br)c(Br)c(Br)c(Br)c21; assay: as §1; type: functional, cell-based, Oocyte

Question: For `C=C[C@H]1C[N+]2(C)CC[C@H]1C[C@H]2[C@H](O)c1ccnc2ccc(OC)cc12`, which Activity [1] is on record?
Answer: is not a substrate [-]

Question: And the Activity [2]?
Answer: is not a substrate [-]

Question: What does the source list for `CN(Cc1cnc2nc(N)nc(N)c2n1)c1ccc(C(=O)N[C@@H](CCC(=O)O)C(=O)O)cc1` [METHOTREXATE]?
Answer: Activity [1]: is not a substrate [-]; Activity [3]: is not a substrate [-]; Activity [2]: is not a substrate [-]

Question: Which results are given for `CC[N+](CC)(CC)CC` [TETRYLAMMONIUM]?
Answer: Activity [1]: is not a substrate [-]; Activity [3]: is not a substrate [-]; Activity [4]: is not a substrate [-]; Activity [2]: is not a substrate [-]

Question: Which results are given for `CC(C)[C@H](NC(=O)[C@H](CCC(=O)O)NC(=O)[C@H](Cc1ccccc1)NC(=O)[C@@H](C)NC(=O)[C@@H](N)Cc1ccc(O)cc1)C(=O)N[C@H](C(=O)NCC(N)=O)C(C)C` [DELTORPHIN II]?
Answer: Activity [1]: is not a substrate [-]; Activity [2]: is not a substrate [-]

Question: With `Nc1ccc(C(=O)NCC(=O)O)cc1` [AMINOHIPPURIC ACID] as the molecule, how does the Activity [1] read?
Answer: is not a substrate [-]

Question: What about the Activity [4] of the same molecule?
Answer: is not a substrate [-]

Question: What about the Activity [2] of the same molecule?
Answer: is not a substrate [-]

Question: `CCCCC[C@H](O)/C=C/[C@H]1[C@H](O)CC(=O)[C@@H]1C/C=C\CCCC(=O)O` [DINOPROSTONE] was tested. Which Activity [3] did it give?
Answer: is not a substrate [-]

Question: Which results are given for `C=CC[N+]1([C@H]2C[C@H]3[C@@H]4CC[C@H]5C[C@H](O)[C@@H](N6CCOCC6)C[C@]5(C)[C@H]4CC[C@]3(C)[C@H]2OC(C)=O)CCCC1` [ROCURONIUM]?
Answer: Activity [1]: is not a substrate [-]; Activity [2]: substrate [+]

Question: `C[C@@H]1O[C@@H](O[C@H]2C[C@@H](O)[C@]3(CO)[C@H]4[C@H](O)C[C@]5(C)[C@@H](C6=CC(=O)OC6)CC[C@]5(O)[C@@H]4CC[C@]3(O)C2)[C@H](O)[C@H](O)[C@H]1O` [OUABAIN] was tested. Which Activity [1] did it give?
Answer: is not a substrate [-]

Question: And the Km [5]?
Answer: 1570 µM

B1: Solute carrier organic anion transporter family member 1B2 (Rattus norvegicus) (protein)
chain: T1 sequence (Q9QZX8 whole entry)
Question: Which Km [6] does the source give for B1 here?
Answer: 6.5 µM

Question: And the Km [7]?
Answer: 22 µM

Question: And the Km [8]?
Answer: 5.3 µM

Question: And the Km [9]?
Answer: 13.8 µM

Question: What about the Km [10] of the same molecule?
Answer: 32 µM

Question: What about the Km [11] of the same molecule?
Answer: 13 µM

Question: What about the Km [12] of the same molecule?
Answer: 37 µM

B2: Solute carrier organic anion transporter family member 1A5 (Rattus norvegicus) (protein)
chain: T2 sequence (O88397 whole entry)
Question: How did the Km [13] turn out when B2 was run?
Answer: 8.3 µM

Question: And the Km [7]?
Answer: 137 µM

Question: What about the Km [8] of the same molecule?
Answer: 162 µM

Question: And the Km [9]?
Answer: 417 µM

Question: And the Km [10]?
Answer: 39 µM

Question: What about the Km [11] of the same molecule?
Answer: 35 µM

Question: What about the Km [12] of the same molecule?
Answer: 268 µM
